Source: ChEMBL document CHEMBL1126603, “Synthesis and pharmacokinetics of a dihydropyridine chemical delivery system for the antiimmunodeficiency virus agent dideoxycytidine” (J Med Chem, 1993)

These molecules were tested on MT4 (assay: Growth inhibition of HIV-1 in human lymphocyte MT-4 cells).
Type: functional, cell-based
With `CN1C=CCC(C(=O)OCC2CCC(n3ccc(N)nc3=O)O2)=C1` (centres undefined) the IC50 was 1200 nM.
`Nc1ccn([C@H]2CC[C@@H](CO)O2)c(=O)n1` (stereo in doubt; form 1) [ZALCITABINE] was tested, and the IC50 was 1000 nM.
In the case of `CN1C=CCC(C(=O)Nc2ccn(C3CCC(CO)O3)c(=O)n2)=C1` (centres undefined), the IC50 is reported as 1200 nM.
Molecule `CN1C=CCC(C(=O)Nc2ccn(C3CCC(COC(=O)C4=CN(C)C=CC4)O3)c(=O)n2)=C1` (centres undefined) has an IC50 of 1900 nM.
